Test results from patent publication US6566368B2, “Apomorphine-containing dosage form for ameliorating male erectile dysfunction” (Pentech Pharmaceuticals, Inc., priority 1994, dated 2003).

How the values were obtained:
[1] = tested on: men with psychogenic male erectile dysfunction (MED); assay: Pilot Study #6: safety and tolerance of escalating APO doses (adverse events, serum chemistry, vital signs)
Description: A clinical study of patient tolerance of escalating doses in sublingual tablet administration of APO for the treatment of psychogenic male erectile dysfunction was performed.
In the second phase, subjects returned to the clinic for four visits, each visit one week apart. Subjects received one sublingual administration of either placebo, or 4, 6 and 8 mg APO at each visit. Doses of APO were administered in ascending order with the placebo being randomly assigned for use at one of the four visits. The procedures performed before and after drug administration were the same as those in the first phase.
Fifty males with psychogenic MED were enrolled in this three phase trial. The first aim of this study was to determine the safety and tolerance of APO in the treatment of MED.

[2] = tested on: non-vasculogenic impotent patients; assay: Dose Evaluation Study: clinical response to sublingual apomorphine tablets before intercourse; settings: for Positive Responses % / Positive Responses No.: 20 days
[3] = 3 mg tablet 20 minutes prior to intercourse, 5 patients
[4] = 4 mg tablet 20 minutes prior to intercourse, 5 patients
[5] = 5 mg tablet 20 minutes prior to intercourse, 10 patients
[6] = 6 mg tablet 20 minutes prior to intercourse, 10 patients
[7] = 7 mg tablet 20 minutes prior to intercourse, 10 patients
[8] = 8 mg tablet 20 minutes prior to intercourse, 10 patients
[9] = 10 mg tablet 20 minutes prior to intercourse, 10 patients

In the case of `CN1CCc2cccc3c2[C@H]1Cc1ccc(O)c(O)c1-3` [apomorphine], the “cardiovascular and other adverse events” value ([1]; 4, 6, 8 mg sublingual, with bradycardia, dizziness, syncope, pallor) is reported as “Hypotension was reported as an adverse event in some subjects”, the incidence of vomiting ([1]; all administered doses) is reported as “less than 3%” and the “nausea cases considered severe” value ([1]; all administered doses) is reported as “two”. For the same compound, the “overall incidence of nausea” value ([1]; all administered doses (4, 6, 8 mg sublingual)) was “less than 13 % of the subjects”, the “changes in serum chemistry values and vital signs” value ([1]; except one subject with abnormal liver function of unknown origin) was “no clinically significant changes” and the “Positive Responses %” value [2, 3] was 0%. For the same compound, the “Positive Responses No.” value [2, 3] was 0, the Nausea % ([2]; 3 mg tablet, 5 patients) was 0% and the “Nausea No.” value ([2]; 3 mg tablet, 5 patients) was 0. The Vomiting % ([2]; 3 mg tablet, 5 patients) was 0%, the “Vomiting No.” value ([2]; 3 mg tablet, 5 patients) was 0 and the “Positive Responses %” value [2, 4] was 40%. For the same compound, the “Positive Responses No.” value [2, 4] was 2, the Nausea % ([2]; 4 mg tablet, 5 patients) was 20% and the “Nausea No.” value ([2]; 4 mg tablet, 5 patients) was 1. For the same compound, the Vomiting % ([2]; 4 mg tablet, 5 patients) was 20%, the “Vomiting No.” value ([2]; 4 mg tablet, 5 patients) was 1 and the “Positive Responses %” value [2, 5] was 50%. For the same compound, the “Positive Responses No.” value [2, 5] was 5, the Nausea % ([2]; 5 mg tablet, 10 patients) was 20% and the “Nausea No.” value ([2]; 5 mg tablet, 10 patients) was 2. The Vomiting % ([2]; 5 mg tablet, 10 patients) was 10%, the “Vomiting No.” value ([2]; 5 mg tablet, 10 patients) was 1 and the “Positive Responses %” value [2, 6] was 70%. For the same compound, the “Positive Responses No.” value [2, 6] was 7, the Nausea % ([2]; 6 mg tablet, 10 patients) was 20% and the “Nausea No.” value ([2]; 6 mg tablet, 10 patients) was 2. For the same compound, the Vomiting % ([2]; 6 mg tablet, 10 patients) was 20%, the “Vomiting No.” value ([2]; 6 mg tablet, 10 patients) was 2 and the “Positive Responses %” value [2, 7] was 70%. For the same compound, the “Positive Responses No.” value [2, 7] was 7, the Nausea % ([2]; 7 mg tablet, 10 patients) was 20% and the “Nausea No.” value ([2]; 7 mg tablet, 10 patients) was 2. For the same compound, the Vomiting % ([2]; 7 mg tablet, 10 patients) was 20%, the “Vomiting No.” value ([2]; 7 mg tablet, 10 patients) was 2 and the “Positive Responses %” value [2, 8] was 70%. For the same compound, the “Positive Responses No.” value [2, 8] was 7, the Nausea % ([2]; 8 mg tablet, 10 patients) was 30% and the “Nausea No.” value ([2]; 8 mg tablet, 10 patients) was 3. For the same compound, the Vomiting % ([2]; 8 mg tablet, 10 patients) was 30%, the “Vomiting No.” value ([2]; 8 mg tablet, 10 patients) was 3 and the “Positive Responses %” value [2, 9] was 80%. For the same compound, the “Positive Responses No.” value [2, 9] was 8, the Nausea % ([2]; 10 mg tablet, 10 patients) was 40% and the “Nausea No.” value ([2]; 10 mg tablet, 10 patients) was 4. For the same compound, the Vomiting % ([2]; 10 mg tablet, 10 patients) was 40% and the “Vomiting No.” value ([2]; 10 mg tablet, 10 patients) was 4.
